Measurements from US20240307427A1 (priority 2023, published 2024).
≈ marks a conversion by molar mass, not a printed value. Like-named read-outs stand apart in the source and are kept apart here.

How the values were obtained:
SARS-COV-2 = settings: in vitro, human precision-cut lung slices; cited from earlier work
[1] = pH determination during dissolution in simulated lung fluid; assay type: physicochemical; settings: equimolar amount (0.017 mol) in 20 mL SLF, initial pH 7.4, 37° C.
Procedure: The solution containing the samples was stirred at 75 rpm with a magnetic bar at 37° C., followed by in situ pH measurement at designated time points, i.e., 2 s, 5 s, 10 s, 15 s, 30 s, 45 s, 1 min, 1.5 min, 2 min, 3 min, 5 min, and 10 min, using a pH meter (Lab 850, Schott Instruments, United Kingdom).

[2] = cited from earlier work
[3] = Equilibrium solubility measurement in organic solvents; assay type: physicochemical; settings: 25 °C, organic solvent or mixture, thermodynamic from solid
Procedure: 10 μL samples were injected onto the column.
Samples were filtered through 0.45 μm membrane filters, followed by dilution to appropriate concentrations for the HPLC assay.

[4] = intravenous doses, healthy subjects, cited from earlier work
[5] = deposited dose 0.35 mg/kg by inhalation vs 10 mg/kg intravenous, African green monkeys; cited from earlier work
A549 cells = experiment: MTT cell viability assay; settings: 24 hours, 0.05 to 10 μM
Procedure: A549 cells were cultured in DMEM/F12 medium supplemented with 10% (v/v) FBS and 1% (v/v) antibiotic-antimycotic at 37° C. in a humidified incubator with 5% CO2. On the day prior to treatment addition, approximately 2×10^4 cells/well were seeded into 96-well plates and incubated overnight. […] Upon the treatment, the cells were incubated with 200 μL of MTT reagent (0.8 mg/mL) for 3 hours at 37° C. 100 μL of isopropyl alcohol was then added to each well to solubilize the formazan dye crystals and the absorbance at 570 nm was measured using a microplate spectrophotometer (Thermo Scientific™ Multiskan™ GO, Thermo-Fisher, Waltham, MA, USA). Cell viability (%) was calculated by dividing the absorbance of treated cells by the absorbance of cells from the control group with equivalent concentration of DMSO as the treatment group. Six replicates were made for each concentration and the whole MTT assay was repeated in triplicate.

[6] = In-vitro drug release study in pH 7.4 simulated lung fluid; assay type: physicochemical; settings: 20 mL pH 7.4 SLF3, 37° C., 75 rpm, LAG cocrystal <63 μm, n=3

## O=C(O)c1ccccc1O [SA, Salicylic acid]
SARS-COV-2
  SARS-COV-2 viral replication: inhibit SARS-COV-2 viral replication
[1]
  medium pH at end point of dissolution (10 min): 7.35±0.03
  medium pH in 2 seconds (transient drop): 6.89±0.02

## CCC(CC)COC(=O)[C@H](C)N[P@](=O)(OC[C@H]1O[C@@](C#N)(c2ccc3c(N)ncnn23)[C@H](O)[C@@H]1O)Oc1ccccc1 [RDV, Remdesivir]
[2]; background statement
  aqueous solubility: < 0.03 mg/mL
[2]; water at 25° C.
  solubility in water: 0.028 mg/mL (≈ 0.0465 mM)
[3]; Acetone
  solubility at 72 h: 66.4 ± 5.34 mg/mL (≈ 110 mM)
[3]; Acetonitrile
  solubility at 72 h: 5.68 ± 0.6 mg/mL (≈ 9.43 mM)
[3]; Chloroform
  solubility at 72 h: 3.86 ± 0.3 mg/mL (≈ 6.41 mM)
[3]; Ethanol
  solubility at 72 h: 34.2 ± 2.29 mg/mL (≈ 56.7 mM)
[3]; Methanol
  solubility at 72 h: 191 ± 13.3 mg/mL (≈ 317 mM)
[4]
  highest plasma concentration of RDV observed: 4420 ng/mL
[4]; converted value
  highest plasma concentration of RDV observed: ~7.8 µM
[5]
  lung RDV triphosphate levels, inhaled vs intravenous: similar
A549 cells
  cell viability: around 100%

## CCC(CC)COC(=O)C(C)NP(=O)(OCC1OC(C#N)(c2ccc3c(N)ncnn23)C(O)C1O)Oc1ccccc1.O=C(O)c1ccccc1O (stereo not drawn) [RDV−SA, cocrystal of remdesivir and salicylic acid]
[1]
  medium pH at end point of dissolution (10 min): 7.41±0.01
[6]
  RDV dissolved at 120 min: 71.22%
A549 cells
  cell viability: around 100%

## CC(=O)Oc1ccccc1C(=O)O [ASA, acetylsalicylic acid]
SARS-COV-2
  SARS-COV-2 viral replication: inhibit SARS-COV-2 viral replication
